From patent US8426437B2, “Pyrroloquinoline derivatives and their use as protein kinases inhibitors” (Pierre Fabre Medicament, priority 2005, dated 2013)
Structures can show the parent of a compound that is named as a salt.

Tests used:
Type in all cases: biochemical
[1] = target: T1, RET (Homo sapiens, UniProt P07949); test: Inhibition of RET kinase activity, recombinant RET method (Kinase-Glo); conditions: RET 2 μg/ml, poly-EY4 substrate, 20 μM ATP, two hours at 30° C.
T1 construct: purchased Upstate 14-570MG
Method in brief: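 Recombinant RET at 2 μg/ml in 20 mM MOPS/NaOH pH 7.0, 1 mM EDTA, 5% glycerol, 0.01% Brij35, 0.1% 2-mercaptoethanol, 1 mg/ml BSA; compounds 10 nM–30 μM final.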

[2] = target: ALK (Homo sapiens, UniProt Q9UM73); test: Inhibition of kinase ALK (PLCγ1-GST substrate, anti-phosphotyrosine ELISA); conditions: ALK 180 ng/ml, 250 μM ATP, 30 minutes at 30° C.
Description: Incubation is carried out for 30 minutes at 30° C. with agitation.
The signal is read in luminescent mode using a luminometer.

[3] = target: T2, PIM-1 (Homo sapiens, UniProt P11309); test: Inhibition of kinase PIM-1 (Kinase-Glo); conditions: PIM-1 0.625 μg/ml, 10 μM ATP, forty minutes at 30° C.
T2 construct: purchased Upstate 14-573
Description: Protein PIM-1 (Upstate #14-573 batch 25864U) is incubated at a concentration of 0.625 μg/ml in a buffer containing 8 mM of MOPS/NaOH pH7, 0.2 mM EDTA, 5 mM MgAc (Sigma #229768), 0.01% Triton Tx100, in the presence of 70 μM of peptide substrate S6 Kinase/Rsk2 (Upstate #12-243), and 10 μM of ATP.
The dilution buffer for PIM-1 is as follows: 20 mM MOPS/NaOH pH7, 1 mM EDTA, 5% glycerol, 0.01% Brij35, 0.1% 2-mercapto, 1 mg/ml BSA
(§1) The compound to be tested is first added to the enzyme to give a reaction volume of 50 μl. The dilution of the compounds of the invention is distributed so as to obtain a scale of final concentrations between 10 nM and 30 μM.
(§2) After incubation of the reaction mixture for forty minutes at 30° C., the level of ATP that remains is assayed using the Kinase-Glo Luminescent Kinase Assay (Promega #V6712) according to the conditions recommended by the supplier. The luminescence induced is read in a plate reader (Envision-Perkin Elmer).

[4] = target: T3, TrkA (Homo sapiens, UniProt P04629); test: Inhibition of kinase TrkA (Kinase-Glo); conditions: TrkA 4 μg/ml, 30 μM ATP, two hours at 30° C.
T3 construct: purchased Upstate 14-571
Description: Protein TrkA (Upstate 14-571; batch #25634U) is incubated at a concentration of 4 μg/ml in a buffer containing 8 mM of MOPS/NaOH pH7, 0.2 mM EDTA, 40 mM MgAc (Sigma #229768), 1 mM DTT (Fluka #43816), NaOV 1 mM, 0.01% Triton Tx100, in the presence of 1 mg/ml of peptide substrate poly-EY (Upstate #P0275), and 30 μM of ATP.
The dilution buffer for TrkA is as follows: 20 mM MOPS/NaOH pH7, 1 mM EDTA, 5% glycerol, 0.01% Brij35, 0.1% 2-mercapto, 1 mg/ml BSA.
as §1
as §2, with “two hours” for “forty minutes”

[5] = target: T4, TrkB (Homo sapiens, UniProt Q16620); test: Inhibition of kinase TrkB (Kinase-Glo); conditions: TrkB 4 μg/ml, 40 μM ATP, two hours at 30° C.
T4 construct: purchased Upstate 14-507
Description: Protein TrkB (Upstate 14-507; batch #25578U) is incubated at a concentration of 4 μg/ml in a buffer containing 8 mM of MOPS/NaOH pH7, 0.2 mM EDTA, 40 mM MgAc (Sigma #229768), 1 mM DTT (Fluka #43816), NaOV 1 mM, 25 mM 2-glycerolphosphate (Sigma #G9891), in the presence of 2.5 mg/ml of peptide substrate poly-EY (Upstate #P0275), and 40 μM of ATP.
The dilution buffer for TrkB is as follows: 20 mM MOPS/NaOH pH7, 1 mM EDTA, 5% glycerol, 0.01% Brij35, 0.1% 2-mercapto, 1 mg/ml BSA.
as §1
as §2, with “two hours” for “forty minutes”

T4 sequence (Q16620 32-822): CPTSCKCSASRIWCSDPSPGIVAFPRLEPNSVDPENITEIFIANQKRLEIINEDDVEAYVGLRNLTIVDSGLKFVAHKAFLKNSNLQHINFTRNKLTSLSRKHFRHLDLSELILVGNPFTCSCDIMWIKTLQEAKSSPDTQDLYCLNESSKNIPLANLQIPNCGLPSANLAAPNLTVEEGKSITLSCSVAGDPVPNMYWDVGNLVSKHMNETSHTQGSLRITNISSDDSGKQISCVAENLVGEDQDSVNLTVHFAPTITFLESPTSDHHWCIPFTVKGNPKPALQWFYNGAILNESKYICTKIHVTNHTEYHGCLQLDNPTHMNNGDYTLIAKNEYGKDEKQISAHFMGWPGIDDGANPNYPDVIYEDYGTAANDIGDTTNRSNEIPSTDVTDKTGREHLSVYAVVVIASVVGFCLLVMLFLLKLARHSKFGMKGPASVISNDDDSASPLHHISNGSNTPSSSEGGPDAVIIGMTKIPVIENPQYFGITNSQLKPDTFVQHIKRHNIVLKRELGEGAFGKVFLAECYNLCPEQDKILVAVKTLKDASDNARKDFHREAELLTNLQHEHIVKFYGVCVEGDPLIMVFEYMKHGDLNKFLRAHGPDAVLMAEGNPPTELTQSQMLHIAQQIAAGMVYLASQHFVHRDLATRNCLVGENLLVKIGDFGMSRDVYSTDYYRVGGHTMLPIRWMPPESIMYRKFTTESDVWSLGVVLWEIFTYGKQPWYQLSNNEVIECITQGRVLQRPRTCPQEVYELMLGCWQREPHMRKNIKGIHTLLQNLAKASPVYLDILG
T2 sequence (P11309 whole entry): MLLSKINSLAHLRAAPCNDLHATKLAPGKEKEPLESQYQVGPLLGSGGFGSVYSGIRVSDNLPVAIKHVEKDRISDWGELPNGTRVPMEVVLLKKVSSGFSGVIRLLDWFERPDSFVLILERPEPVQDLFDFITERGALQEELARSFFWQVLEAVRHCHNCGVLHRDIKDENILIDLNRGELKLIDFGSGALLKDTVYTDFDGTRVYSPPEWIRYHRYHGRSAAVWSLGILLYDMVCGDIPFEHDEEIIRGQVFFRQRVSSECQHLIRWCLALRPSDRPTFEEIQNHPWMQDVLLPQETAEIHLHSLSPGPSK
Sequence of ALK (Q9UM73 19-1620, species assumed): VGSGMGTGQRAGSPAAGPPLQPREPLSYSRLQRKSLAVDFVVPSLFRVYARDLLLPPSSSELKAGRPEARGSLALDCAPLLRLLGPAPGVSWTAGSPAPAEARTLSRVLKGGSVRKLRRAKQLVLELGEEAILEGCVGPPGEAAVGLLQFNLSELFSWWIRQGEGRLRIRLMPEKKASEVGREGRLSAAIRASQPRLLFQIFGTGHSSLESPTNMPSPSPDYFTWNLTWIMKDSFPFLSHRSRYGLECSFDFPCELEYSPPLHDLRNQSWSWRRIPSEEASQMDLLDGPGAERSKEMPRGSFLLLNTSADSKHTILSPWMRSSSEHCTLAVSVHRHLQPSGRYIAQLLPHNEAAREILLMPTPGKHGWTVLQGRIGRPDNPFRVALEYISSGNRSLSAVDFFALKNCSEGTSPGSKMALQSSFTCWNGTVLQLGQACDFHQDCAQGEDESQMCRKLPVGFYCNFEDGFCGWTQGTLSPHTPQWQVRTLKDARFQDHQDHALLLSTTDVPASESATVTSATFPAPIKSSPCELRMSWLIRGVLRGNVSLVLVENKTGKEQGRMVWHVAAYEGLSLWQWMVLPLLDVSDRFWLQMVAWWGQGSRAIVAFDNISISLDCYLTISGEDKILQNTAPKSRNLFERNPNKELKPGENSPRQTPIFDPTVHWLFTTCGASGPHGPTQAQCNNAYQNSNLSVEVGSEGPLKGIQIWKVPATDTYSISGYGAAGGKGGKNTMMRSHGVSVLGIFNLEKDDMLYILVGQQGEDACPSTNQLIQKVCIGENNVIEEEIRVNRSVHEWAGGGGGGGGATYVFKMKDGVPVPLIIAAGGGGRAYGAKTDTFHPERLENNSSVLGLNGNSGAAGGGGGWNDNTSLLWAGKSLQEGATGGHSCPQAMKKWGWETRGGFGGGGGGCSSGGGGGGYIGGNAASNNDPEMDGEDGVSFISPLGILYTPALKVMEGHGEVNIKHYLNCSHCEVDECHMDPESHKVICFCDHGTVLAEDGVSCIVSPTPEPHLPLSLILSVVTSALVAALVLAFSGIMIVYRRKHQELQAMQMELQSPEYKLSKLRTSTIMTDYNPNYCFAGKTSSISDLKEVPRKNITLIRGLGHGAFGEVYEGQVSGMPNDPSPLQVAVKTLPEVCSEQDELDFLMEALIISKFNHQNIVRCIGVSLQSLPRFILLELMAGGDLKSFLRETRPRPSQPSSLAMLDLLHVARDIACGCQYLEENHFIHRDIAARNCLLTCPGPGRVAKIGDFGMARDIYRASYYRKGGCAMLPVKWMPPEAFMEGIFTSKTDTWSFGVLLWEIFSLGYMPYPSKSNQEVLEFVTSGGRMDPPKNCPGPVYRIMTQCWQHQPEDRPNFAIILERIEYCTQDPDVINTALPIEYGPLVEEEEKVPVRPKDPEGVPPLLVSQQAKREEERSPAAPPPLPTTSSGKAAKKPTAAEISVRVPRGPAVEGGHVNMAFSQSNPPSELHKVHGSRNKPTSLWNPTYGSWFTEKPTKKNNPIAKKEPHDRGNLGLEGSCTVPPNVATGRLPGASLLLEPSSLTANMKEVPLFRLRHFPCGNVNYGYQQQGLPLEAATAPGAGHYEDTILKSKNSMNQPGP
T1 sequence (P07949 29-1114): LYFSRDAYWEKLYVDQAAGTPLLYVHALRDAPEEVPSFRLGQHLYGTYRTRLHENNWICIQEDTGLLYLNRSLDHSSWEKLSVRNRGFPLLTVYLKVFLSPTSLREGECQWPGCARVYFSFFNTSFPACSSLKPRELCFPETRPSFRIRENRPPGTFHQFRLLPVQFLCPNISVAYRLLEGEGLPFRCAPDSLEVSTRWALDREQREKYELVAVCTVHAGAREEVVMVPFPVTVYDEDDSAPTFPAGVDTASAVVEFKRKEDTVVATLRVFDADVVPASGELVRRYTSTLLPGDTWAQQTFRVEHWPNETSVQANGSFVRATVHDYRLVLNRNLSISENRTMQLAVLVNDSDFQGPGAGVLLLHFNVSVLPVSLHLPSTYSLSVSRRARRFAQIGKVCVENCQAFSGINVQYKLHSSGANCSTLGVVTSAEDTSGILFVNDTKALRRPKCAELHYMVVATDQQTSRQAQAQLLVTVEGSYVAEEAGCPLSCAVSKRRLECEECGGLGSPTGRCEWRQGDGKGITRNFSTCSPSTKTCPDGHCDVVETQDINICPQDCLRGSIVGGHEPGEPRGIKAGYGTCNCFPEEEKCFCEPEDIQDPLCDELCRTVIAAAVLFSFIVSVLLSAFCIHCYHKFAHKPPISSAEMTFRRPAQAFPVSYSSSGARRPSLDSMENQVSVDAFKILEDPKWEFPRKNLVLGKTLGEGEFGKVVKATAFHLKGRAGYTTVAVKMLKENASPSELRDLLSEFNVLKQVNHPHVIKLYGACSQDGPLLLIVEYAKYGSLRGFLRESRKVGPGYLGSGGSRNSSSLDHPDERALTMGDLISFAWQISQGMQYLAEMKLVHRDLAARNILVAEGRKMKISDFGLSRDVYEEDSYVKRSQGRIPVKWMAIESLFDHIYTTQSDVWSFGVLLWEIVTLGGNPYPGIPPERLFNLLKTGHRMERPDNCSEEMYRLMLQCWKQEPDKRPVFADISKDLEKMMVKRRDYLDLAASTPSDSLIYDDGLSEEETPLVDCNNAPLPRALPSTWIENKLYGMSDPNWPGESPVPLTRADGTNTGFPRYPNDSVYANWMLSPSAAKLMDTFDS
T3 sequence (P04629 33-796): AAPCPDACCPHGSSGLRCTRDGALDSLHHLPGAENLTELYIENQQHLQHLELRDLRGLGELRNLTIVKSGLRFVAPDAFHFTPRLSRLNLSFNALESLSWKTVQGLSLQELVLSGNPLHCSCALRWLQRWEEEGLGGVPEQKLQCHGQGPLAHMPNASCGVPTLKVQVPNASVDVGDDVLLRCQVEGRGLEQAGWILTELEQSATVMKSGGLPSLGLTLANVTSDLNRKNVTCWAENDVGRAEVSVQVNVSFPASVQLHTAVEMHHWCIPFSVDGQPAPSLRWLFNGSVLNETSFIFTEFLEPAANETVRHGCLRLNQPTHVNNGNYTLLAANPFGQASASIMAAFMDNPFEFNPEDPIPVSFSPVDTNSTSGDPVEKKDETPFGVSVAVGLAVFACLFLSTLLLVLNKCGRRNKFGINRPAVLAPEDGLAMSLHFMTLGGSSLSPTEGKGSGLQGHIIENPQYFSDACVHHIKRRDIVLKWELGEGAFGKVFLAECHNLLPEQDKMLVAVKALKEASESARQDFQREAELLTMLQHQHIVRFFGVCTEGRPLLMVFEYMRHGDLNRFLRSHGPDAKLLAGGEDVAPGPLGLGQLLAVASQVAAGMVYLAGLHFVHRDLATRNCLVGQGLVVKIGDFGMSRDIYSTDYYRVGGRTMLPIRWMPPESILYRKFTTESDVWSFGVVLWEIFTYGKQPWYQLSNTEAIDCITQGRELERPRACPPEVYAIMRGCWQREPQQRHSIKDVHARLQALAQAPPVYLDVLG

| IC50 [1] [nM] | IC50 [3] [nM] | IC50 [4] [nM] | IC50 [5] [nM] | SMILES | IC50 [2] [nM] |
| --- | --- | --- | --- | --- | --- |
| < 100 | 10000 to 100000 | 1000 to 10000 | 10000 to 100000 | CCOC(=O)c1c[nH]c2c(=O)[nH]c3ccc(S(=O)(=O)N(C)c4ccccc4)cc3c12 [Compound 3, 8-(Methyl-phenylsulfamoyl)-4-oxo-4,5-dihydro-3H-pyrrolo[2,3-c]quinoline-1-ethyl carboxylate] |  |
| 100 to 1000 | 1000 to 10000 | 10000 to 100000 | 10000 to 100000 | CCOC(=O)c1c[nH]c2c(=O)[nH]c3ccc(-c4cccc(CN(C)C)c4)cc3c12 [Compound 242, 8-(3-Dimethylaminomethyl-phenyl)-4-oxo-4,5-dihydro-3H-pyrrolo[2,3-c]quinoline-1-ethyl carboxylate] |  |
| 100 to 1000 | 1000 to 10000 | 1000 to 10000 | 1000 to 10000 | CCOC(=O)c1c[nH]c2c(=O)[nH]c3ccc(-c4cccc(CO)c4)cc3c12 [Compound 240, 8-(3-Hydroxymethyl-phenyl)-4-oxo-4,5-dihydro-3H-pyrrolo[2,3-c]quinoline-1-ethyl carboxylate] |  |
| 100 to 1000 | 1000 to 10000 | 10000 to 100000 | 10000 to 100000 | O=C(OCC1CCCCC1)c1c[nH]c2c(=O)[nH]c3ccc(S(=O)(=O)NC4CCNCC4)cc3c12 [Compound 117] |  |
| 100 to 1000 |  |  |  | CCCOC(=O)c1c[nH]c2c(=O)[nH]c3ccc(S(=O)(=O)N(C[C@@H]4CCCN4C)C4CC4)cc3c12 [Compound 145, (S)-8-[Cyclopropyl-(1-methyl-pyrrolidin-2-ylmethyl)sulfamoyl]-4-oxo-4,5-dihydro-3H-pyrrolo[2,3-c]quinoline-1-propyl carboxylate] | 1000 to 10000 |
| < 100 | 1000 to 10000 | 10000 to 100000 | 10000 to 100000 | CCCOC(=O)c1c[nH]c2c(=O)[nH]c3ccc(S(=O)(=O)NC4CCNCC4)cc3c12 [Compound 114, 4-Oxo-8-(piperidin-4-ylsulfamoyl)-4,5-dihydro-3H-pyrrolo[2,3-c]quinoline-1-propyl carboxylate] |  |
| 100 to 1000 |  |  |  | CCOC(=O)c1c[nH]c2c(=O)[nH]c3ccc(S(=O)(=O)NC4CC4)cc3c12 [Compound 123, 8-Cyclopropylsulfamoyl-4-oxo-4,5-dihydro-3H-pyrrolo[2,3-c]quinoline-1-ethyl carboxylate] | 1000 to 10000 |
| 1000 to 10000 | 1000 to 10000 | 1000 to 10000 | 1000 to 10000 | CCOC(=O)c1c[nH]c2c(=O)[nH]c3ccc(S(=O)(=O)O)cc3c12 [Compound 227, 4-Oxo-8-sulfo-4,5-dihydro-3H-pyrrolo[2,3-c]quinoline-1-ethyl carboxylate] |  |
| 1000 to 10000 |  |  |  | CCOC(=O)c1c[nH]c2c(=O)[nH]c3ccc(C(=O)N(C[C@@H]4CCCN4)C4CC4)cc3c12 [Compound 219, (S)-8-(cyclopropyl-pyrrolidin-2-ylmethyl-carbamoyl), 3-oxo-4,5-dihydro-3H-pyrrolo[2,3-c]quinoline-1-ethyl carboxylate hydrochloride] | 1000 to 10000 |
| 100 to 1000 |  |  |  | CCCOC(=O)c1c[nH]c2c(=O)[nH]c3ccc(S(=O)(=O)N(C)CC(N)=O)cc3c12 [Compound 177, 8-(Carbamoylmethyl-methyl-sulfamoyl)-4-oxo-4,5-dihydro-3H-pyrrolo[2,3-c]quinoline-1-propyl carboxylate] | 100 to 1000 |
| < 100 | 1000 to 10000 | 10000 to 100000 | 10000 to 100000 | CCCCOC(=O)c1c[nH]c2c(=O)[nH]c3ccc(S(=O)(=O)NC4CCNCC4)cc3c12 [Compound 115, 4-Oxo-8-(piperidin-4-ylsulfamoyl)-4,5-dihydro-3H-pyrrolo[2,3-c]quinoline-1-carboxylate of butyl] |  |
| 100 to 1000 | 1000 to 10000 | 1000 to 10000 | 100 to 1000 | CCOC(=O)c1c[nH]c2c(=O)[nH]c3ccc(-c4cccc(O)c4)cc3c12 [Compound 237, 8-(3-Hydroxy-phenyl)-4-oxo-4,5-dihydro-3H-pyrrolo[2,3-c]quinoline-1-ethyl carboxylate] |  |
| 100 to 1000 | 10000 to 100000 | 1000 to 10000 | 1000 to 10000 | CCOC(=O)c1c[nH]c2c(=O)[nH]c3ccc(NS(=O)(=O)c4ccccc4)cc3c12 [Compound 37, 8-Benzenesulfonylamino-4-oxo-4,5-dihydro-3H-pyrrolo[2,3-c]quinoline-1-ethyl carboxylate] |  |
| 100 to 1000 | 1000 to 10000 | 10000 to 100000 | 10000 to 100000 | CCNc1nccc(-c2ccc3[nH]c(=O)c4[nH]cc(C(=O)OCC)c4c3c2)n1 [Compound 264, 8-(2-Ethylamino-pyrimidin-4-yl)-4-oxo-4,5-dihydro-3H-pyrrolo[2,3-c]quinoline-1-ethyl carboxylate] |  |

| SMILES | IC50 [1] [nM] | IC50 [3] [nM] | IC50 [4] [nM] | IC50 [5] [nM] | IC50 [2] [nM] |
| --- | --- | --- | --- | --- | --- |
| CCCOC(=O)c1c[nH]c2c(=O)[nH]c3ccc(S(=O)(=O)N(C[C@@H](C)N)C4CC4)cc3c12 [Compound 155, (R)-8-[(2-Amino-propyl)-cyclopropyl-sulfamoyl]-4-oxo-4,5-dihydro-3H-pyrrolo[2,3-c]quinoline-1-propyl carboxylate hydrochloride] | < 100 |  |  |  | 100 to 1000 |
| CCCOC(=O)c1c[nH]c2c(=O)[nH]c3ccc(S(=O)(=O)N(C[C@@H]4CCCN4)C(C)C)cc3c12 [Compound 149, (S)-8-(Isopropyl-pyrrolidin-2-ylmethyl-sulfamoyl)-4-oxo-4,5-dihydro-3H-pyrrolo[2,3-c]quinoline-1-propyl carboxylate hydrochloride] | < 100 |  |  |  | 100 to 1000 |
| CCCOC(=O)c1c[nH]c2c(=O)[nH]c3ccc(S(=O)(=O)N(C[C@@H]4CCCN4)C4CC4)cc3c12 [Compound 144, (S)-8-(Cyclopropyl-pyrrolidin-2-ylmethyl-sulfamoyl)-4-oxo-4,5-dihydro-3H-pyrrolo[2,3-c]quinoline-1-propyl carboxylate hydrochloride] | < 100 |  |  |  | 100 to 1000 |
| CCCOC(=O)c1c[nH]c2c(=O)[nH]c3ccc(S(=O)(=O)N(C[C@H](C)N)C4CC4)cc3c12 [Compound 153, (S)-8-[(2-Amino-propyl)-cyclopropyl-sulfamoyl]-4-oxo-4,5-dihydro-3H-pyrrolo[2,3-c]quinoline-1-propyl carboxylate hydrochloride] | < 100 |  |  |  | 100 to 1000 |
| CCOC(=O)c1c[nH]c2c(=O)[nH]c3ccc(S(=O)(=O)NC4CN5CCC4CC5)cc3c12 (centres unmarked) [Compound 94, 8-(1-Azabicyclo[2.2.2]oct-3-ylsulfamoyl)-4-oxo-4,5-dihydro-3H-pyrrolo[2,3-c]quinoline-1-ethyl carboxylate] | 100 to 1000 |  |  |  | 100 to 1000 |
| CCCOC(=O)c1c[nH]c2c(=O)[nH]c3ccc(S(=O)(=O)N(CC(C)(C)NC)C4CC4)cc3c12 [Compound 141, 8-[Cyclopropyl-(2-methyl-2-methylamino-propyl)-sulfamoyl]-4-oxo-4,5-dihydro-3H-pyrrolo[2,3-c]quinoline-1-propyl carboxylate hydrochloride] | 100 to 1000 |  |  |  | 100 to 1000 |
| C#CCN(C[C@@H]1CCCN1)S(=O)(=O)c1ccc2[nH]c(=O)c3[nH]cc(C(=O)OCCC)c3c2c1 [Compound 150, (S)-4-Oxo-8-(prop-2-ynyl-pyrrolidin-2-ylmethyl-sulfamoyl)-4,5-dihydro-3H-pyrrolo[2,3-c]quinoline-1-propyl carboxylate hydrochloride] | < 100 |  |  |  | 100 to 1000 |
